Values quoted from earlier work in patent publication US6841573B2, “Use of arachidonic acid as a method of increasing skeletal muscle mass” (Molecular Nutrition, priority 2002, dated 2005).

What was measured:
cox-1 enzyme = target: T1, cox-1 enzyme (Homo sapiens, UniProt P23219); details: by inhibiting the normal post-exercise increase in PGF2alpha
T1 construct: host or cells: skeletal muscle in vivo (endogenous enzyme)

[1] = after administering the precursor
[2] = 14C-labeled arachidonic acid, human skeletal muscle and kidney homogenates
[3] = after oral 200 mg and 1.5 g supplemented arachidonic acid per day, human, drawn blood
[4] = serum from forearm and kidney of human volunteers after direct infusion into brachial or renal artery
intact rabbit muscle = details: unstimulated intact rabbit muscle, in-vitro

T1 sequence (P23219 24-599): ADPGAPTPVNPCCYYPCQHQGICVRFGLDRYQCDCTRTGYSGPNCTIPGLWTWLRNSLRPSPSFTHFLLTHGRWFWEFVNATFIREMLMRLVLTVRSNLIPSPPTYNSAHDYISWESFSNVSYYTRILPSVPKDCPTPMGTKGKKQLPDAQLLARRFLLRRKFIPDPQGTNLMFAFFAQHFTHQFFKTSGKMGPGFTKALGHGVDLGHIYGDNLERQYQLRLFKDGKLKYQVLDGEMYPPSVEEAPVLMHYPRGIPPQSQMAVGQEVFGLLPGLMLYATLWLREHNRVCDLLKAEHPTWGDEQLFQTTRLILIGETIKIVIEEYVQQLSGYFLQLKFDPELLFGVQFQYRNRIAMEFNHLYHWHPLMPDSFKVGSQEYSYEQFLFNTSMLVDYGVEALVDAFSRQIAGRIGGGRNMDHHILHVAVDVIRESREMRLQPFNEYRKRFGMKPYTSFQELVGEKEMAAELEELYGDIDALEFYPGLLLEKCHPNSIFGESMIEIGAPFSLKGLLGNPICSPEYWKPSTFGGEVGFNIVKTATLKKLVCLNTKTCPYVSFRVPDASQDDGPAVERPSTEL

Row | SMILES | effect on rates of protein synthesis (intact rabbit muscle) | other results
1 | CC(=O)Nc1ccc(O)cc1 [acetaminophen] | – | effect on anabolic response of muscle to resistance exercise (cox-1 enzyme): profoundly diminish the anabolic response
2 | C[C@]12CCC(=O)C=C1CC[C@@H]1[C@@H]2CC[C@]2(C)C(=O)CC[C@@H]12 [androstenedione] | – | period of subsequent decline of active hormone (testosterone) concentration [1]: three to four; time to peak concentration of active hormone (testosterone) [1]: ≤ 90 min
3 | CCCCC/C=C\C/C=C\C/C=C\C/C=C\CCCC(=O)O [arachidonic acid] | – | prostaglandins produced during incubation [2]: PGD2, PGE2, PGF2 alpha and 6-keto-PGF1 alpha; in-vitro secretion of LTB4 and PGE2 [3]: measurably increase; labeled metabolites found in serum [4]: PGD2, PGE2, PGF2 alpha, 6-keto-PGF1 alpha and 13,14-dihydro-15-keto-PGE2 (Me) were all found
4 | CCCCC/C=C\C\C=C/C=C/C=C/[C@@H](SC[C@H](NC(=O)CC[C@H](N)C(=O)O)C(=O)NCC(=O)O)[C@@H](O)CCCC(=O)O [leukotriene C4] | failed to do so | –
5 | CCCCC/C=C\C\C=C/C=C/C=C/[C@@H](SC[C@H](N)C(=O)NCC(=O)O)[C@@H](O)CCCC(=O)O [leukotriene D4] | failed to do so | –
6 | CCCCC[C@H](O)/C=C/[C@H]1C=CC(=O)[C@@H]1CCCCCCC(=O)O [prostaglandin A1] | increased rates of protein synthesis | –
7 | CCCCC[C@H](O)/C=C/[C@H]1C(=O)C[C@H](O)[C@@H]1C/C=C\CCCC(=O)O [prostaglandin D2, PGD2] | failed to do so | –
8 | CCCCC[C@H](O)/C=C/[C@H]1[C@H](O)CC(=O)[C@@H]1C/C=C\CCCC(=O)O [prostaglandin E2, PGE2] | failed to do so | –
9 | CCCCC[C@H](O)/C=C/[C@@H]1[C@@H](C/C=C\CCCC(=O)O)[C@@H](O)C[C@H]1O [prostaglandin F2 alpha, PGF2alpha] | increased rates of protein synthesis | –
